In PubChem BioAssay (NCI):
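Values below derive from 48-hour exposures of cells grown in 96-well plates, with endpoints linearly interpolated between the two concentrations bracketing the appropriate inhibition level. TGI denotes the concentration required for complete inhibition of growth.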

Experiments:
Assay in all cases: NCI tumour cell line growth inhibition, 48 h
MDA-N = system: MDA-N
MCF7 breast = system: MCF7 breast
CCRF-CEM leukemia = system: CCRF-CEM leukemia
OVCAR-4 ovarian = system: OVCAR-4 ovarian
UACC-62 melanoma = system: UACC-62 melanoma
MDA-MB-231 breast = system: MDA-MB-231 breast
HT29 colon = system: HT29 colon
SN12C renal = system: SN12C renal
HCT-116 colon = system: HCT-116 colon
SK-MEL-2 melanoma = system: SK-MEL-2 melanoma
NCI/ADR-RES ovarian = system: NCI/ADR-RES ovarian
NCI-H23 lung = system: NCI-H23 lung
OVCAR-3 ovarian = system: OVCAR-3 ovarian
786-0 renal = system: 786-0 renal
HOP-92 NSCLC = system: HOP-92 NSCLC
IGROV1 ovarian = system: IGROV1 ovarian
MALME-3M melanoma = system: MALME-3M melanoma
COLO 205 colon = system: COLO 205 colon
KM12 colon = system: KM12 colon
SF-295 CNS = system: SF-295 CNS
SW-620 colon = system: SW-620 colon
U251 CNS = system: U251 CNS
SF-539 CNS = system: SF-539 CNS
A498 renal = system: A498 renal
HL-60(TB) leukemia = system: HL-60(TB) leukemia
RXF 393 renal = system: RXF 393 renal
NCI-H460 lung = system: NCI-H460 lung
OVCAR-8 ovarian = system: OVCAR-8 ovarian
UACC-257 melanoma = system: UACC-257 melanoma
LOX IMVI melanoma = system: LOX IMVI melanoma
PC-3 prostate = system: PC-3 prostate
K-562 leukemia = system: K-562 leukemia
UO-31 renal = system: UO-31 renal
CAKI-1 renal = system: CAKI-1 renal
SR leukemia = system: SR leukemia
ACHN renal = system: ACHN renal
SK-MEL-5 melanoma = system: SK-MEL-5 melanoma
RPMI-8226 leukemia = system: RPMI-8226 leukemia
SNB-19 CNS = system: SNB-19 CNS
EKVX NSCLC = system: EKVX NSCLC
SK-OV-3 ovarian = system: SK-OV-3 ovarian
NCI-H522 lung = system: NCI-H522 lung
OVCAR-5 ovarian = system: OVCAR-5 ovarian
MDA-MB-435 = system: MDA-MB-435
M14 melanoma = system: M14 melanoma
A549 NSCLC = system: A549 NSCLC
SF-268 CNS = system: SF-268 CNS
NCI-H226 lung = system: NCI-H226 lung
HCT-15 colon = system: HCT-15 colon
BT-549 breast = system: BT-549 breast
MOLT-4 leukemia = system: MOLT-4 leukemia
TK-10 renal = system: TK-10 renal
HS 578T breast = system: HS 578T breast
SK-MEL-28 melanoma = system: SK-MEL-28 melanoma
HOP-62 NSCLC = system: HOP-62 NSCLC

Measured: TGI

CN(C)CC(CN(C)C)c1ccccn1
> 100 µM: all assays above
